The record followed here is US9006261B2, “Fluorescent perylene derivatives for direct detection of heparin” (priority 2009, dated 2015).

This test is described as follows: Fluorescence response to Dalteparin sodium in buffer, serum and plasma. The test is classed as binding. The settings on record: fluorescence of perylene diimide derivative/LMWH mixture. The method, then:
The response of the perylene diimide derivative to heparin was additionally studied using Dalteparin sodium (0.4-0.8 IU/mL), a clinically important LMWH preparation with a mean molecular weight of 5000 g/mol. Fluorescence was recorded with a portable fluorometer, equipped with a 485 nm excitation filter and a 665 nm cutoff emission filter. The latter filter offered good signal-to-background ratio since serum/plasma autofluorescence is very low above 665 nm. The fluorescence of the perylene diimide derivative decreased approximately linearly (FIG. 4c) with increasing LMWH concentration, in buffered solution. The binding ration was calculated to be one perylene diimide derivative/2 disaccharides of heparin. Solutions containing 20 vol % serum or plasma required an only slightly larger (about 1.1-fold) LMWH concentration to trigger the same relative fluorescence decrease as observed in buffered solution.

With protamine, the “reversibility of LMWH binding on addition of protamine” value is “fluorescence was restored”.
